Series [1] deals with T1, Peroxisome proliferator-activated receptor gamma (Homo sapiens, UniProt P37231).
T1 sequence (P37231 whole entry): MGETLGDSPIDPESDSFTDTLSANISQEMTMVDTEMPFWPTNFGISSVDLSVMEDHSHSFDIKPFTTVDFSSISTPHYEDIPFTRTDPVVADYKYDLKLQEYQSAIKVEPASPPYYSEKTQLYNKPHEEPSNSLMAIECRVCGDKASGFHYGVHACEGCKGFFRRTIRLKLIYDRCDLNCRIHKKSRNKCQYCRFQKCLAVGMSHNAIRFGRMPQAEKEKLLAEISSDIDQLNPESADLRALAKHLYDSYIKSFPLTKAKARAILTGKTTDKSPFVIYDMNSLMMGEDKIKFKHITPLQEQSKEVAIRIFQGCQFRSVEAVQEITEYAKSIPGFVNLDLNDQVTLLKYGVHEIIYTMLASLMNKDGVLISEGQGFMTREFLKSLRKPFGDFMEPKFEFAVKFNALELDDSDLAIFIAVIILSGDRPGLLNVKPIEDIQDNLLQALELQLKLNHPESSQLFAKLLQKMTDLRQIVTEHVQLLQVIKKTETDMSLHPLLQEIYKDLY
Kind of series: Modulator activity at GAL4-fused human PPARgamma LBD (unknown origin) transfected in African green monkey CV1 cells assessed as receptor transactivation by luciferase reporter gene assay. The format is cell-based, CV-1. For orientation: In a reporter assay the amount or activity of a reporter protein is the signal.

The nature of series [2]: Cmax in Wistar rat at 3 mg/kg, po. Format: ADME, organism-based. The arrangement: route oral, dose 3 mg/kg. To be noted: in vivo.
Series [3] is described as follows: AUC in cynomolgus monkey at 10 mg/kg, po. Format: ADME, organism-based, Macaca fascicularis. The arrangement: dose 10 mg/kg. To be noted: in vivo.
Series [4] in a line: Protein binding in human plasma. Format: ADME, cell-free. The conditions noted are these: read-out: PPB.
The nature of series [5]: Inhibition of CYP450 (unknown origin). The format is ADME, Homo sapiens.
Series [6] can be described thus: Volume of distribution at steady state in cynomolgus monkey at 3 mg/kg, iv. The format is ADME, organism-based, Macaca fascicularis. To be noted: in vivo.
The nature of series [7]: Volume of distribution at steady state in CD-1 mouse at 1 mg/kg, iv. Format: ADME, organism-based. To be noted: in vivo, read-out: Vdss.
The nature of series [8]: Half life in Wistar rat at 3 mg/kg, po. The format is ADME, organism-based. To be noted: in vivo.
Series [9] concerns the target T2, Peroxisome proliferator-activated receptor delta (Mus musculus, UniProt P35396).
T2 sequence (P35396 whole entry): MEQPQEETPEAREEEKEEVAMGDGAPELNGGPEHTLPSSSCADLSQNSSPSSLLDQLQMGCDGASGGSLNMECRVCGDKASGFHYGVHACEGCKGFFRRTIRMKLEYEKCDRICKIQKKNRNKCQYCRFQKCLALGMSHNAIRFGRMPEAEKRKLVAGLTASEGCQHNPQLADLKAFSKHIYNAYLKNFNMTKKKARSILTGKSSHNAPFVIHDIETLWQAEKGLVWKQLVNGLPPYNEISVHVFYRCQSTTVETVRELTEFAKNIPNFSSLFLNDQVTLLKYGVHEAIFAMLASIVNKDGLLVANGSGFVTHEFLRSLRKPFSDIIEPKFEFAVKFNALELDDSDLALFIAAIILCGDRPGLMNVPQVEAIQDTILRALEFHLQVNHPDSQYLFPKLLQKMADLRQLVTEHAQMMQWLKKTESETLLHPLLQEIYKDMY
Nature of the series: Modulator activity at mouse PPARdelta.

Series [10] is described as follows: Modulator activity at rat PPARdelta.
A short description of series [11]: AUC in Wistar rat at 1 mg/kg, iv. The arrangement: dose 1 mg/kg. To be noted: in vivo. The format is ADME, organism-based.
The nature of series [12]: Half life in Wistar rat at 1 mg/kg, iv. Format: ADME, organism-based. The conditions noted are these: in vivo.
Series [13] can be described thus: Protein binding in rat plasma. The format is ADME, cell-free. The conditions noted are these: read-out: PPB (converted).
Series [14] is described as follows: Volume of distribution at steady state in Wistar rat at 1 mg/kg, iv. Format: ADME, organism-based. The conditions noted are these: in vivo, read-out: Vdss.
Series [15] can be described thus: Half life in CD-1 mouse at 3 mg/kg, iv. The format is ADME, organism-based. To be noted: in vivo.

Data on one compound can be found in ChEMBL document CHEMBL4715826, “Selective PPARδ Modulators Improve Mitochondrial Function: Potential Treatment for Duchenne Muscular Dystrophy (DMD)” (ACS Med Chem Lett, 2018).

The term EC50 denotes the concentration giving half of the maximal effect. Usually Cmax stands for the highest concentration seen after dosing. A word on the AUC: it is the area under the concentration-time curve, a measure of exposure. What is called IC50 is the concentration that gives 50% inhibition. The term Vdss denotes a proportionality between amount in the body and measured concentration, not a real space. As a reminder, the half-life is how long it takes for the measured level to halve. As for `Cc1cnc(-c2ccc(OC(F)(F)F)cc2)n1Cc1ccccc1OCCC[C@@H](C)CC(=O)O`, the results for the EC50 in series [1], in [9] and in series [10] were above 10000 nM, 7.9 nM and 10 nM, respectively. Besides, the highest level in [2] (Cmax) was 1090 ng/mL. The values for the AUC in series [3] and in [11] were 3840 ng·h/mL and 1590 ng·h/mL, respectively. Besides, the results for the fraction unbound in series [4] and in series [13] were 0.001 and 0.004, respectively. The compound also displayed a 50% inhibitory concentration (IC50) in series [5] of at least 10000 nM. Also, the Vdss in series [6] was 3.2 L/kg. Moreover, the Vd in [7] was 5.8 L/kg; in [14], 1.8 L/kg. The half-life was 4.6 h in series [8], 6.1 h in series [12] and 3.3 h in [15].
